Test [1] concerns LTD4 evoked ileal contractions. Kind of test: LTD4 antagonism: inhibition of LTD4 evoked contractions of isolated guinea pig ileum. Also on record: species or system Male, Hartley guinea pigs. To be noted: 5 min exposure to drug, 50% inhibition of LTD4 responses, 37° C. Here is the method:
(§1) Male, Hartley guinea pigs weighing 200-450 grams were killed by decapitation. A section of terminal ileum was removed, the lumen cleaned, and the tissue divided into 2.5 cm segments. The ilea were mounted in 10 ml tissue baths containing Krebs-bicarbonate solution of the following composition in mmoles/liter: KCl, 4.6; CaCl2 ·2H2 O, 1.2; KH2 PO4, 1.2; MgSO4 ·7H2 O, 1.2; NaCl, 118.2; NaHCO3, 24.8; and dextrose, 10.0. The bath fluid was maintained at 37° C. and aerated with 95 percent oxygen and 5 percent CO2. In addition, the buffer contained 1×10^-6 M atropine to reduce ileal spontaneous activity. Isometric measurements were made with a Grass FT03C force-displacement transducer and recorded on a Grass polygraph as change in grams of force. A passive force of 0.5 g. was applied to the tissues. After an appropriate equilibration period, single submaximal control responses to pure LTD4 were obtained. Following a five minute exposure of the ileum to an experimental drug, the control concentration of LTD4 was added to the tissue bath. The response of the ileum to LTD4 in the presence of the drug was compared to the response in the absence of the drug. Various degrees of LTD4 antagonism were obtained using 2-4 different concentrations of an experimental compound on a single ileum.
(§2) Percent inhibition of LTD4 evoked ileal contractions

In test [2] the test system is pressor response to leukotriene D4. Kind of test: decrease of LTD4 pressor response in pithed rats. Format: in vivo, Adult male Sprague-Dawley rats. To be noted: Rattus norvegicus, iv, 0.25 h, 15 minutes prior to leukotriene D4 challenge (10 μg/kg, i.v.); dose to decrease pressor response by 50%. Here is the method: A further measure of the final product's activity is their ability to decrease the pressor response in pithed rats that are challenged by LTD4. This activity is measured by the following standard procedure
Adult male Sprague-Dawley rats, weighting approximately 300-500 grams, are anesthetized with pentobarbital sodium (60 mg/kg, i.p.). The trachea is cannulated and the rats are ventilated with room air delivered from a rodent respirator (Harvard, model 680; tidal volume of 1 ml/100 grams body weight, 60 cycles/minute). Rats are pithed by passing a steel rod through the right orbit and down the entire length of the spinal column. The rod is left in position for the duration of the experiment. Pulsatile arterial blood pressure is measured from a cannulated carotid artery using a Stathamtransducer (P231D). Mean arterial blood pressure is calculated as diastolic pressure plus 1/3 pulse pressure. Drug solutions are administered i.v. through a catheter placed in a jugular vein. Arterial blood pressure is recorded on a multichannel oscillograph (Beckman, model R511A).
Groups of pithed rats, usually 4-6/group, are pretreated i.v. with a dose of test compound or vehicle (control experiments) 15 minutes prior to leukotriene D4 challenge (10 μg/kg, i.v.). Usually 3-4 doses of the test compound are evaluated in a given study. Blood pressure responses to leukotriene D4 in control and drug-treated pithed rats are then compared and an ED50 dose of antagonist is estimated. ED50 (95% confidence interval) is the calculated dose of antagonist (mg/kg, i.v.) required to decrease the pressor response to leukotriene D4 by 50%.
The ED50 values of selected final products of Formula I are set forth below in Table 2.

Test [3] concerns the target T1, LTD4 in guinea pig ileum and trachea (Cavia porcellus, UniProt Q2NNR5).
T1 construct: from tissue; host or cells: isolated ileum and trachea of guinea pigs (male Hartley stated for the ileum test)
T1 sequence (Q2NNR5 1-340): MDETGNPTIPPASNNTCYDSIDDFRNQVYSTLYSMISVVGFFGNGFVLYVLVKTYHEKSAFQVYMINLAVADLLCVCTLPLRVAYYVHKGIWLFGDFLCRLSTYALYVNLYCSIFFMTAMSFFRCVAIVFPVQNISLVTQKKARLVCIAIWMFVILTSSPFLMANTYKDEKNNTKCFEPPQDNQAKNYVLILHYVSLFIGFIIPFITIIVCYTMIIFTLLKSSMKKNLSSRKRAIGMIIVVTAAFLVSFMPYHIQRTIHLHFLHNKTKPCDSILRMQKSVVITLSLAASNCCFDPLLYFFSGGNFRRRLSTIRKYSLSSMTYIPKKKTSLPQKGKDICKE
Kind of test: cumulative concentration-response curves to LTD4 in guinea pig ileum and trachea (KB by method of Furchgott). The conditions noted are these: negative log of the dissociation KB, 30 minute incubation, LTD4 agonist. How it is done: as §1
For some of the drugs in this series a more detailed analysis of LTD4 antagonism was made. In these experiments, cumulative concentration-response curves were obtained to LTD4 in guinea pig ileum and trachea. This was followed by a 30 minute incubation with various concentrations of the experimental drug. The concentration response curve to LTD4 was then repeated in the presence of an antagonist. Only one concentration of antagonist was used on a single tissue. KB values were calculated by the method of Furchgott [Ann. N.Y. Acad. Sci., 139, 553 (1967)] using the following equation. [formula]
Dose effect ratio refers to the concentration of agonist required to elicit 50 percent of the maximal response (ED50) in the presence of the antagonist divided by the ED50 in the absence of the antagonist. Calculations were performed with the aid of a computer and a digital plotter. The negative log of the dissociation KB ("pKB ") is given for some of the compounds in the table below.
as §2

Broadly, the ED50 is the midpoint of the dose-response relation. Higher therefore signals a need for a large dose. One may read the pKB as the negative decadic logarithm of the KB, by convention in mol/L. High values mean a small KB, low ones a large KB.

Take `CCCc1c(OCCCCc2nnn(CC(=O)O)n2)ccc(C(C)=O)c1O` [A]: in test [1], the “-log IC50” value is given as 6.68. The same compound displayed an ED50 in test [2] greater than 30 mg/kg.

Consider `CCCc1c(OCCCCc2nnnn2CC(=O)O)ccc(C(C)=O)c1O` [B], for which the “-log IC50” value in test [1] amounted to 5.88. The ED50 in test [2] was greater than 30 mg/kg.

As for `CCCc1c(OCCCCCCc2nnn(CC(=O)O)n2)ccc(C(C)=O)c1O` [E], the “-log IC50” value in test [1] is recorded as 6.83. For the same compound, the ED50 in test [2] is greater than 30 mg/kg.

Regarding `CCCc1c(OCCCCc2nnn(CCCCc3nnn[nH]3)n2)ccc(C(C)=O)c1O` [Example 23A, 5-[4-(4-Acetyl-3-hydroxy-2-(n-propyl)phenoxy)butyl]-2[4-(1H-tetrazol-5-yl)butyl]-2H-tetrazole], the “-log IC50” value in test [1] was found to be 7.65. In test [2], this compound showed an ED50 of 7.5 mg/kg.

In the case of `CCCc1c(OCCCCc2nnn(CCCc3nn[nH]n3)n2)ccc(C(C)=O)c1O` [Example 25], the “-log IC50” value in test [1] was determined as 7.42. In test [2], this compound showed an ED50 of 8.4 mg/kg.

For the compound `CCCc1c(OCCCCc2nnn(CCCCCCc3nn[nH]n3)n2)ccc(C(C)=O)c1O` [Example 26, 5-4-(4-Acetyl-3-hydroxy-2-(n-propyl)phenoxybutyl]-2-[6-(1H-tetrazol-5-yl)hexyl]-2H-tetrazole], the “-log IC50” value in test [1] was determined as 7.63. Besides, the ED50 in test [2] came out at 18.6 mg/kg.

Consider `CCCc1c(OCCCCc2nnn(CCCCCCC(=O)O)n2)ccc(C(C)=O)c1O` [Example 27, 5-[4-(4-Acetyl-3-hydroxy-2-propylphenoxy)butyl]-2H-tetrazole-2-(7-heptanoicacid)], for which, in test [1], the “-log IC50” value stood at 7.05. This compound also registered an ED50 in test [2] of 12.7 mg/kg.

As for `CCCc1c(OCCCCc2nnn(CCCCCc3nnn[nH]3)n2)ccc(C(C)=O)c1O` [Example 28, 5-[4-(4-Acetyl-3-hydroxy-2-(n-propyl)phenoxy)butyl]-2-[5-(1H-tetrazol-5-yl)pentyl]-2H-tetrazole], the “-log IC50” value in test [1] came to 7.57. The compound also had an ED50 in test [2] of 9.7 mg/kg.

Regarding `CCCc1c(OCCCCc2nnn(CCCCCC(=O)O)n2)ccc(C(C)=O)c1O` [Example 29], the “-log IC50” value in test [1] turned out to be 7.35. The ED50 in test [2] worked out at 8.7 mg/kg.

`CCCc1c(OCCCCc2nnn(Cc3ccc(-c4nn[nH]n4)cc3)n2)ccc(C(C)=O)c1O` [Example 30]: the “-log IC50” value in test [1] is 7.54. The ED50 in test [2] stood at 16.8 mg/kg.

As to `CCCc1c(OCCCCc2nnn(Cc3cccc(-c4nnn[nH]4)c3)n2)ccc(C(C)=O)c1O` [Example 34, 5-[4-(4-Acetyl-3-hydroxy-2-(n-propyl)phenoxy)butyl]-2-[meta-(1H-tetrazol-5-yl)benzyl]-2H-tetrazole], in test [1], the “-log IC50” value turned out to be 7.52. Further, it took a dose of 25.5 mg/kg to reach the 50% effect level in test [2] (ED50).

`CCCc1c(OCCCCc2nnn(Cc3cccc(C(=O)O)c3)n2)ccc(C(C)=O)c1O` [Example 35, 5-[4-(4-Acetyl-3-hydroxy-2-(n-propyl)phenoxy)butyl]-2H-tetrazole-2-(α-methylene-m-benzoic acid)]: in test [1], the “-log IC50” value amounted to 7.15. The compound also had an ED50 in test [2] of 27.5 mg/kg.

As to `CCCc1c(OCCCCCc2nnn(CCCC(=O)O)n2)ccc(C(C)=O)c1O` [Example 39, 5-[5-(Acetyl-3-hydroxy-2-(n-propyl)phenoxy)pentyl]-2-[4-butanoic acid]-2H-tetrazole], the “-log IC50” value in test [1] came to 6.37. In addition, the ED50 in test [2] was determined as 25.8 mg/kg.

Consider `CCCc1c(OCCCCc2nnn(CCC(=O)O)n2)ccc(C(C)=O)c1O` [Example 44, 5-[4-(4-Acetyl-3-hydroxy-2-propylphenoxy)butyl]-2H-tetrazol-2-(3-propionic acid)], for which the “-log IC50” value in test [1] came to 6.81. In test [2], the ED50 was 10.6 mg/kg.

For the compound `CCCc1c(OCCCCc2nnnn2CCC(=O)O)ccc(C(C)=O)c1O` [Example 45, 5-[4-(4-Acetyl-3-hydroxy-2-(n-propyl)phenoxy)butyl]-1H-tetrazole-1-[3-propionic acid]], in test [1], the “-log IC50” value is reported as 5.83. Besides, in test [2], the ED50 was greater than 30 mg/kg.

Consider `CCCc1c(OCCCCc2nnn(CCCC(=O)O)n2)ccc(C(C)=O)c1O` [Example 46, 5-[4-(4-Acetyl-3-hydroxy-2-propylphenoxy)butyl]-2H-tetrazol-2-(4-butyric acid)], for which the “-log IC50” value in test [1] turned out to be 7.12. Further, it took a dose of 8.1 mg/kg to reach the 50% effect level in test [2] (ED50).

Turning to `CCCc1c(OCCCCc2nnnn2CCCC(=O)O)ccc(C(C)=O)c1O` [Example 47, 5-[4-(4-Acetyl-3-hydroxy-2-(n-propyl)phenoxy)butyl]-1-[4-butanoic acid]-1H-tetrazole], the “-log IC50” value in test [1] amounted to 5.89. Also, the ED50 in test [2] was greater than 30 mg/kg.

For the compound `CCCc1c(OCCCCc2nnn(CCCCC(=O)O)n2)ccc(C(C)=O)c1O` [Example 48, 5-[4-(4-Acetyl-3-hydroxy-2-propylphenoxy)butyl]-2H-tetrazol-2-(5-pentanoic acid)], the “-log IC50” value in test [1] is 7.15. In test [2], this compound yielded an ED50 of 9.9 mg/kg.

With `CCCc1c(OCCCCCCc2nnnn2CCCC(=O)O)ccc(C(C)=O)c1O` [Example 50], the “-log IC50” value in test [1] is 6.54. This compound yielded an ED50 in test [2] of 17.3 mg/kg.

On to `CCCc1c(OCCCCCCc2nnn(CCCC(=O)O)n2)ccc(C(C)=O)c1O` [Example 51, 5-[6-(4-Acetyl-3-hydroxy-2-(n-propyl)phenoxy)hexyl]-2H-tetrazole-2-[4-butanoic acid]], for which, in test [1], the “-log IC50” value came out at 6.75. In test [2], this compound came in with an ED50 of 18.3 mg/kg.

Compound `CCCc1c(OCCCCc2nnn(Cc3ccc(Cc4nn[nH]n4)cc3)n2)ccc(C(C)=O)c1O` [Example 54] came in with an ED50 in test [2] of 22.4 mg/kg. Besides, the pKB in test [3] was 7.10.

With `CCCc1c(OCCCCc2nnn(Cc3ccc(C(=O)O)c(O)c3)n2)ccc(C(C)=O)c1O` [Example 55, 5-[4-(4-Acetyl-3-hydroxyl-2-(n-propyl)phenoxy)-butyl]-2H-tetrahydrazole-2-[4-(methylene)salicylic acid]], in test [2], the 50% effect level (ED50) was put at a dose of 22 mg/kg. In addition, the pKB in test [3] is on record as 6.89.

The compound `CCCc1c(OCCCCc2nnnn2Cc2ccc(C(=O)O)cc2O)ccc(C(C)=O)c1O` [Example 56, 5-[4-(4-Acetyl-3-hydroxy-2-(n-propyl)phenoxy)butyl]-1H-tetrazole-1-[(4-methylene)-3-hydroxybenzoic acid]] returned a pKB in test [3] of 6.40.

In turn, `CCCc1c(Oc2ccc(-c3nnn(Cc4ccc(C(=O)O)cc4)n3)cc2)ccc(C(C)=O)c1O` [Example 58, 5-[Para-(4-Acetyl-3-hydroxy-2-(n-propyl)phenoxy)phenyl]-2H-tetrazole-2-[para(methylene)benzoic acid]] had a pKB in test [3] of 7.00.

Regarding `CCCc1c(OCCCCCCc2nnnn2CC(=O)O)ccc(C(C)=O)c1O` [F], the “-log IC50” value in test [1] is 6.59. Moreover, it took a dose of 27.1 mg/kg to reach the 50% effect level in test [2] (ED50).

For the compound `CCCc1c(OCCCCCc2nnn(CC(=O)O)n2)ccc(C(C)=O)c1O` [G], in test [1], the “-log IC50” value amounted to 6.3. The compound further displayed an ED50 in test [2] greater than 30 mg/kg.

Values taken from patent US4820723A, “Disubstituted tetrazole leukotriene antagonists and methods for their use thereas” (Eli Lilly and Company, priority 1987, dated 1989).
